Source: ChEMBL document CHEMBL1143858, “Structure-based design and synthesis of novel macrocyclic pyrazolo[1,5-a] [1,3,5]triazine compounds as potent inhibitors of protein kinase CK2 and their anticancer activities” (Bioorg Med Chem Lett, 2008)

Columns and labels:
[1] = molecular target: Casein kinase II subunit alpha (Zea mays, UniProt P28523); experiment: Inhibition of corn CK2
[2] = test system: HCT-116; experiment: Inhibition of human HCT116 cells by MTT assay; type: functional, cell-based
[3] = test system: PC-3; experiment: Inhibition of human PC3 cells by MTT assay; type: functional, cell-based

Casein kinase II subunit alpha, sequence (P28523 whole entry): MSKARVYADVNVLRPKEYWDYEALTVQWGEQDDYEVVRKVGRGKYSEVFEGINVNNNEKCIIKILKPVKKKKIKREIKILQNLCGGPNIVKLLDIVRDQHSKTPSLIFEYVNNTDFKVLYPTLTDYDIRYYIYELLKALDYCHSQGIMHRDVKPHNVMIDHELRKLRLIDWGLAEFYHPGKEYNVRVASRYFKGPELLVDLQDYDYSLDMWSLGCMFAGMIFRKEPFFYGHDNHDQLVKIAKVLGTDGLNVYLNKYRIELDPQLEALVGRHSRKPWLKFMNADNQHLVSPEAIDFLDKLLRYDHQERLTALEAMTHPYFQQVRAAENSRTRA

| SMILES | Ki [1] [nM] | IC50 ([2]; Homo sapiens, HCT-116) [nM] | IC50 ([3]; Homo sapiens, PC-3) [nM] | IC50 ([2]; hct-116) [nM] | IC50 ([3]; pc-3) [nM] |
| --- | --- | --- | --- | --- | --- |
| O=C1CCCCc2cnn3c(Nc4cccc(C(=O)N5CC(O)C5)c4)nc(nc23)Nc2cccc(c2)N1 | 3.6 | 330 | 600 | – | – |
| CC(=O)Nc1cccc(Nc2nc(NC3CC3)n3ncc(C#N)c3n2)c1 | – | – | 5100 | – | – |
| CCN(CC)C1CCN(C(=O)c2cccc(Nc3nc4nc5c(cnn35)CCCCC(=O)Nc3cccc(c3)N4)c2)C1 (stereo unspecified) | 2.2 | 130 | 140 | – | – |
| CN1CCC(N(C)C(=O)c2cccc(Nc3nc4nc5c(cnn35)CCCCC(=O)Nc3cccc(c3)N4)c2)CC1 | 1.4 | 180 | – | – | – |
| CN(C)CCNC(=O)c1cccc(Nc2nc3nc4c(cnn24)CCCCC(=O)Nc2cccc(c2)N3)c1 | 5.2 | 240 | 380 | – | – |
| CN1CC(NC(=O)c2cccc(Nc3nc4nc5c(cnn35)CCCCC(=O)Nc3cccc(c3)N4)c2)C1 | 7.4 | 270 | 330 | – | – |
| CN(C)C1CCN(C(=O)c2cccc(Nc3nc4nc5c(cnn35)CCCCC(=O)Nc3cccc(c3)N4)c2)C1 (stereo unspecified) | 1.4 | 190 | 230 | – | – |
| CCN(CC)CCN(C)C(=O)c1cccc(Nc2nc3nc4c(cnn24)CCCCC(=O)Nc2cccc(c2)N3)c1 | 2.4 | 150 | – | – | – |
| O=C1CCCCc2cnn3c(Nc4cccc(C(=O)N5CCNCC5)c4)nc(nc23)Nc2cccc(c2)N1 | 0.8 | 440 | – | – | – |
| CN1CCC(N(C)C(=O)c2cccc(Nc3nc4nc5c(cnn35)CCCCC(=O)Nc3cccc(c3)N4)c2)C1 (stereo unspecified) | 2 | 83 | 120 | – | – |
| O=C1CCCCc2cnn3c(NC4CC4)nc(nc23)Nc2cccc(c2)N1 | – | – | – | 290 | 880 |
| CN1CCN(C(=O)c2cccc(Nc3nc4nc5c(cnn35)CCCCC(=O)Nc3cccc(c3)N4)c2)CC1 | 1.3 | 250 | 500 | – | – |
| CN(C)CCN(C)C(=O)c1cccc(Nc2nc3nc4c(cnn24)CCCCC(=O)Nc2cccc(c2)N3)c1 | 4 | 130 | 210 | – | – |
| CCN(CC)C1CN(C(=O)c2cccc(Nc3nc4nc5c(cnn35)CCCCC(=O)Nc3cccc(c3)N4)c2)C1 | 3.4 | 300 | 620 | – | – |
